Laboratory results from US20230109839A1, “THERAPEUTIC AGENT FOR TAUOPATHIES” (SUMITOMO PHARMA CO., LTD., priority 2020, published 2023).

Biological target: T1, human Nav1.1 (Homo sapiens, UniProt P35498)
T1 construct: host or cells: HEK293
Experiment: Amplification of Nav1.1-derived voltage-gated sodium current (Nav1.1 current), automated patch clamp (Test 1)
Format: cell-based
Settings: HEK293 cell line stably expressing human Nav1.1
Method in brief: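 HEK293 cells stably expressing human Nav1.1, restricted to cells with >500 pA current, were recorded by automated voltage-clamp patch clamp with a ramp voltage stimulus. Compounds were applied in HEPES-buffered extracellular solution with 1% DMSO. Amplification (%) = 100×(peak or AUC after/before compound)−100.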

[1] = Concentration for evaluation 1 μM
[2] = Concentration for evaluation 50 μM
[3] = Concentration for evaluation 3 μM

Nav1.1 current amplification rate (%) [1] [%] | Structure (SMILES) | further results
200 | CN(CC1CCCC1)c1cnc2cnn(CC(=O)Nc3ccn4ncnc4c3)c2n1 [Example 626] | 
 | CN(CC(F)F)c1cnc2cnn(CC(=O)Nc3ccn4ncnc4c3)c2n1 [Example 627] | Nav1.1 current amplification rate (%) [2]: 60%
14 | CN(c1cnc2cnn(CC(=O)Nc3ccn4ncnc4c3)c2n1)C1CCC(F)(F)C1 (stereo not drawn) [Example 628] | 
 | COCC1(N(C)c2cnc3cnn(CC(=O)Nc4ccn5ncnc5c4)c3n2)CC1 [Example 629] | Nav1.1 current amplification rate (%) [3]: 15%
49 | CN(c1cnc2cnn(CC(=O)Nc3ccn4ncnc4c3)c2n1)C1CC1(C)C (stereo not drawn) [Example 631] | 
164 | CN(c1ncc2cnn(CC(=O)Nc3ccn4ncnc4c3)c2n1)C1CC(C)(C)C1 [Example 632] | 
15 | CC(C1CC1)N(C)c1cnc2cnn(CC(=O)Nc3ccn4ncnc4c3)c2n1 (stereo not drawn) [Example 633] | 
13 | CC(C1CCC1)N(C)c1cnc2cnn(CC(=O)Nc3ccn4ncnc4c3)c2n1 (stereo not drawn) [Example 634] | 
76 | CC1CC(N(C)c2cnc3cnn(CC(=O)Nc4ccn5ncnc5c4)c3n2)C1 (stereo not drawn) [Example 635] | 
 | CC1CC2(C1)CN(c1cnc3cnn(CC(=O)Nc4ccn5ncnc5c4)c3n1)C2 [Example 638] | Nav1.1 current amplification rate (%) (Concentration for evaluation 10 μM): 58%
100 | CN(CC1(C)CC1)c1cnc2cnn(CC(=O)Nc3ccn4ncnc4c3)c2n1 [Example 639] | 
38 | CN(CC1(F)CC1)c1cnc2cnn(CC(=O)Nc3ccn4ncnc4c3)c2n1 [Example 640] | 
361 | CC1CC=C(c2cnc3cnn(CC(=O)Nc4ccc5cncnc5c4)c3n2)CC1 (stereo not drawn) [Example 641] | 
252 | CC1CCN(c2cnc3cnn(CC(=O)Nc4ccc5cncnc5c4)c3n2)CC1 [Example 642] | 
165 | CN(CCC1CC1)c1cnc2cnn(CC(=O)Nc3ccc4cncnc4c3)c2n1 [Example 647] | 
91 | CC1(C)CC=C(c2cnc3cnn(CC(=O)Nc4ccc5ncnn5c4)c3n2)CC1 [Example 649] | 
26 | CCC1CC=C(c2cnc3cnn(CC(=O)Nc4ccc5ncnn5c4)c3n2)CC1 (stereo not drawn) [Example 650] | 
173 | CC1CC=C(c2cnc3cnn(CC(=O)Nc4ccc5ncnn5c4)c3n2)CC1 (stereo not drawn) [Example 653] | 
23 | CC1(C)CCN(c2cnc3cnn(CC(=O)Nc4ccc5ncnn5c4)c3n2)CC1 [Example 654] | 
70 | O=C(Cn1ncc2ncc(C3=CCC4(CC3)CC4)nc21)Nc1ccc2ncnn2c1 [Example 656] | 
33 | CC1CCN(c2cnc3cnn(CC(=O)Nc4ccc5ncnn5c4)c3n2)CC1(F)F (stereo not drawn) [Example 658] | 
25 | O=C(Cn1ncc2ncc(N3CCC4(CC4)C(F)(F)C3)nc21)Nc1ccc2ncnn2c1 [Example 659] | 
64 | O=C(Cn1ncc2ncc(C3=CCC4(CC3)CC4(F)F)nc21)Nc1ccc2ncnn2c1 (stereo not drawn) [Example 660] | 
12 | CC(C)CN(C)c1cnc2cnn(CC(=O)Nc3ccc4ncnn4c3)c2n1 [Example 661] | 

Nav1.1 current amplification rate (%) [1] [%] | Structure (SMILES) | further results
 | C#CCN(C)c1cnc2cnn(CC(=O)Nc3ccc4ncnn4c3)c2n1 [Example 662] | Nav1.1 current amplification rate (%) [2]: 47%
13 | CN(CC1CC1)c1cnc2cnn(CC(=O)Nc3ccc4ncnn4c3)c2n1 [Example 663] | 
34 | CN(c1cnc2cnn(CC(=O)Nc3ccc4ncnn4c3)c2n1)C1CC1 [Example 664] | 
 | CC(C)N(C)c1cnc2cnn(CC(=O)Nc3ccc4ncnn4c3)c2n1 [Example 665] | Nav1.1 current amplification rate (%) [2]: 63%
64 | CN(c1cnc2cnn(CC(=O)Nc3ccc4ncnn4c3)c2n1)C1CC2(CC2)C1 [Example 666] | 
45 | CN(CC1(C)CC1)c1cnc2cnn(CC(=O)Nc3ccc4ncnn4c3)c2n1 [Example 667] | 
72 | CN(c1ncc2cnn(CC(=O)Nc3ccc4ncnn4c3)c2n1)C1CC(C)(C)C1 [Example 668] | 
30 | CN(c1cnc2cnn(CC(=O)Nc3ccc4ncnn4c3)c2n1)C1CCCC1 [Example 669] | 
77 | CN(c1cnc2cnn(CC(=O)Nc3ccn4ccnc4c3)c2n1)C1CCCC1 [Example 670] | 
34 | CN(c1cnc2cnn(CC(=O)Nc3cccc(N4CCOCC4)c3F)c2n1)C1CCCC1 [Example 671] | 
56 | Cc1cc(NC(=O)Cn2ncc3ncc(N(C)C4CCCC4)nc32)cc2ncnn12 [Example 672] | 
 | CN(c1cnc2cnn(CC(=O)N3CCN(c4cccnc4)CC3)c2n1)C1CCCC1 [Example 673] | Nav1.1 current amplification rate (%) [3]: 20%
62 | CN(C)c1nc2cc(NC(=O)Cn3ncc4ncc(N(C)C5CCCC5)nc43)ccc2o1 [Example 674] | 
36 | Cc1nc2cc(NC(=O)Cn3ncc4ncc(N(C)C5CCCC5)nc43)ccc2o1 [Example 675] | 
36 | Cc1nc2cc(NC(=O)Cn3ncc4ncc(N(C)C5CCCC5)nc43)cnc2s1 [Example 676] | 
35 | Cc1cc(NC(=O)Cn2ncc3ncc(N(C)C4CCCC4)nc32)cn2ncnc12 [Example 677] | 
132 | CN(c1cnc2cnn(CC(=O)Nc3ccc4oc(C(F)F)nc4c3)c2n1)C1CCCC1 [Example 678] | 
63 | CN(c1cnc2cnn(CC(=O)Nc3ccc4cnnn4c3)c2n1)C1CCCC1 [Example 679] | 
50 | CN(c1cnc2cnn(CC(=O)Nc3ccc4nccnc4c3)c2n1)C1CCCC1 [Example 680] | 
26 | Cc1nccn1-c1ccc(NC(=O)Cn2ncc3ncc(N(C)C4CCCC4)nc32)cc1 [Example 681] | 
53 | CN(c1cnc2cnn(CC(=O)Nc3ccc(-n4ccnc4)nc3)c2n1)C1CCCC1 [Example 682] | 
63 | CN(c1cnc2cnn(CC(=O)Nc3ccc(C#N)nc3)c2n1)C1CCCC1 [Example 683] | 
39 | Cc1cc(NC(=O)Cn2ncc3ncc(N(C)C4CCCC4)nc32)cc2nccn12 [Example 684] | 
41 | CN(c1cnc2cnn(CC(=O)Nc3ccn4ccnc4c3)c2n1)C1CCC1 [Example 685] | 

Nav1.1 current amplification rate (%) [1] [%] | Structure (SMILES) | further results
13 | Cc1cn2ccc(NC(=O)Cn3ncc4ncc(N(C)C5CCC5)nc43)cc2n1 [Example 686] | 
67 | Cc1cc(NC(=O)Cn2ncc3ncc(N(C)C4CCC4)nc32)cc2ncnn12 [Example 687] | 
201 | CN(c1cnc2cnn(CC(=O)N3CCc4c(C5=CCOCC5)cccc43)c2n1)C1CCC1 [Example 688] | 
286 | CN(c1cnc2cnn(CC(=O)N3CCc4c(-c5ccncc5)cccc43)c2n1)C1CCC1 [Example 689] | 
 | CN(c1cnc2cnn(CC(=O)N3CCc4cc(C#N)ccc43)c2n1)C1CCC1 [Example 691] | Nav1.1 current amplification rate (%) [3]: 11%
33 | CN(c1cnc2cnn(CC(=O)Nc3cncc(Br)c3)c2n1)C1CCC1 [Example 692] | 
13 | CN(c1cnc2cnn(CC(=O)N3CCc4c(-c5ccnn5C)cccc43)c2n1)C1CCC1 [Example 693] | 
448 | CN(c1cnc2cnn(CC(=O)N3CCc4c(-c5cnn(C)c5)cccc43)c2n1)C1CCC1 [Example 694] | 
219 | CC(=O)N1CC(c2cccc3c2CCN3C(=O)Cn2ncc3ncc(N(C)C4CCC4)nc32)C1 [Example 695] | 
306 | CN(c1cnc2cnn(CC(=O)N3CCc4c(C5CN(C(=O)CO)C5)cccc43)c2n1)C1CCC1 [Example 696] | 
21 | CN1CCN(c2cccc3c2CCN3C(=O)Cn2ncc3ncc(N(C)C4CCC4)nc32)CC1 [Example 697] | 
18 | CN1CC(c2cccc3c2CCN3C(=O)Cn2ncc3ncc(N(C)C4CCC4)nc32)C1 [Example 698] | 
366 | CN(c1cnc2cnn(CC(=O)N3CCc4c(-c5ccnnc5)cccc43)c2n1)C1CC1 [Example 699] | 
 | CN(c1cnc2cnn(CC(=O)N3CC=C(c4cccnc4)CC3)c2n1)C1CC1 [Example 700] | Nav1.1 current amplification rate (%) [3]: 13%
60 | CN(c1cnc2cnn(CC(=O)Nc3ccn4ccnc4c3)c2n1)C1CC1 [Example 702] | 
27 | Cc1cn2ccc(NC(=O)Cn3ncc4ncc(N(C)C5CC5)nc43)cc2n1 [Example 703] | 
109 | Cc1cc(NC(=O)Cn2ncc3ncc(N(C)C4CC4)nc32)cc2ncnn12 [Example 704] | 
54 | CN(c1cnc2cnn(CC(=O)N3CCc4cc(N5CCOCC5)ccc43)c2n1)C1CC1 [Example 705] | 
195 | CN(c1cnc2cnn(CC(=O)Nc3ccc4cnccc4c3)c2n1)C1CC1 [Example 706] | 
62 | CN(c1cnc2cnn(CC(=O)Nc3ccc4cnnn4c3)c2n1)C1CC1 [Example 707] | 
 | CC(C)c1ccc(NC(=O)Cn2ncc3ncc(N(C)C4CC4)nc32)cn1 [Example 708] | Nav1.1 current amplification rate (%) [3]: 25%
44 | CN(c1cnc2cnn(CC(=O)Nc3ccc(C#N)nc3)c2n1)C1CC1 [Example 709] | 
100 | CN(c1cnc2cnn(CC(=O)Nc3ccc4cccnc4c3)c2n1)C1CC1 [Example 711] | 
 | CN(c1cnc2cnn(CC(=O)Nc3ccc4cccnc4n3)c2n1)C1CC1 [Example 712] | Nav1.1 current amplification rate (%) [2]: 78%
